According to patent publication EP0047620A1, “Aryl diazabicyclyl amides, a process for their preparation and use” (BEECHAM GROUP PLC, priority 1980, dated 1982):

Tests used:
[1] = test system: rat; experiment: Increase in intragastric pressure in the rat; format: in vivo; conditions: conscious restrained rats, subcutaneous administration, increase in intragastric pressure over 40 minute period after dosing
Procedure: Intragastric pressure changes were recorded from previously starved conscious but retrained rats using a saline filled catheter inserted into the lumen of the stomach via a permanent gastric fistula. The catheter was connected to a physiological pressure transducer and pressure changes recorded on a hot wire pen recorder. In each animal a pre-dose period of 40 minutes was allowed to obtain a measure of spontaneous activity. An index of activity was obtained by measuring the average height of pressure waves during 10 minute periods. Values for 4 such periods were obtained during assessment of spontaneous activity and for the 40 minute period after the subcutaneous administration of the compounds. Students 't' test was applied to the difference in average values obtained for spontaneous and post-compound activity.

[2] = test system: mouse; experiment: Inhibition of apomorphine induced climbing in the mouse; format: in vivo; conditions: sc, apomorphine 1 mg/kg s.c., compounds given subcutaneously, climbing scored at 10, 20 and 30 minutes, I + number = inactive at that dose
Procedure: The test is based on that described by Protais, P., Constantin, J. and Schwartz, J.C.
Apomorphine 1 mg/kg s.c. induces mice to climb the wall of a wire cage (inverted food hopper - 11 x 7.5 x 18 cm high). Mice acclimatised in their home cages in groups of 5 are placed under the hoppers immediately after the injection of apomorphine 1 mg/kg s.c. At 10, 20 and 30 minutes after injection climbing behaviour is scored. The mice are observed for 30 seconds and scored according to the position in which they spend the majority of time, score O - four paws on floor of cage; score 1 - fore paws only on walls; score 2 - all paws on wall of cage. The scores at all 3 times and for each mouse are summed and mice drug treated subcutaneously compared to mice receiving apomorphine only.
Compounds were also tested for their ability to inhibit apomorphine induced climbing in the mouse.

`COc1cc(N)c(Cl)cc1C(=O)NC1CCN2CCCCN2C1` (racemic) [Example 2, (±) 4-Amino-5-chloro-2-methoxy-N-(3-{1,6-diazabicyclo [4,4,0]decyl}) benzamide] was tested, and the minimal effective dose ([1]; Rattus norvegicus, sc, 40 min, read-out: Dose mg/kg Subcutaneously (minimum dose for activity)) was 1 mg/kg and the ED50 [2] was 110 mg/kg.

`COc1cc(N)c(Cl)cc1C(=O)NC1CN2CCC(c3ccccc3)CN2C1` (centres unmarked) [Example 8, 4-Amino-5-chloro-2-methoxy-N-(3-{7-phenyl-1,5-diaza-bicyclo[4,3,0]nonyl})benzamide] showed an ED50 [2] of 4.5 mg/kg.

In the case of “(±) 4-Amino-5-chloro-2-methoxy-N-(7 or 8- {2-methyl-1,5-diazabicyclo[4,3,0]nonyl})benzamide [Example 14]”, the “Dose mg/kg Subcutaneously (minimum dose for activity)” value [1] is reported as 0.5 mg/kg.

In the case of “(±) 4-Amino-5-chloro-2-methoxy-N-(7 or 8-{2- methyl-1,5-diazabicyclo[4,3,0]nonyl})benzamide [Example 15]”, the “Dose mg/kg Subcutaneously (minimum dose for activity)” value [1] is reported as 1.0 mg/kg.
